# Measured values: patent publication US12576155B2, “Senolytic and antiinflammatory prodrugs and methods of use thereof” (priority 2019, dated 2026)
# Experiments:
# [1] = Serum biochemical test and routine blood analysis in old mice (toxicity); format: in vivo
# Method: All drugs were mixed in 90% PBS, 5% Tween-80 (P1754, Sigma), and 5% polyethylene glycol (PEG) (81172, Sigma) and administered to mice by intraperitoneal (i.p.) injection. […] […] Gemcitabine was purchased from MCE.
# For blood routine examination, 50 μl fresh blood was collected from each mouse and mixed with EDTA immediately. The blood samples were analyzed by Celltac Alpha MEK-6400 series hematology analyzers (Nihon Kohden, MEK-6400). For serum biochemical analysis, blood samples were collected, clotted for 2 hours at room temperature or overnight at 4° C., and then centrifuged (1000 g, 10 min) to gain serum. 200 μl serum was aliquot and analyzed of Alanine transaminase (ALT), aspartate transaminase (AST), uric acid (UA) and creatinine (CREA) by Chemistry Analyzer (Mindray, BS-350E).
# [2] = test system: senescent mouse fibroblasts induced by ionizing irradiation, oncogene overexpression, or genotoxic stress (etoposide treatment); assay: Cell viability, oncogene-, etoposide- and irradiation-induced senescent MEFs; format: cell-based; details: oncogene- (Kras), etoposide- and irradiation- (10 Gy) induced senescent MEFs vs non-senescent; increasing doses
# [3] = test system: naturally occurring senescent cells of aged mice; assay: SSK1 treatment of naturally aged mice (senescent cells, SASP, physical function, RNA-seq); format: in vivo, C57BL/6 mice
# Method: All drugs were mixed in 90% PBS, 5% Tween-80 (P1754, Sigma), and 5% polyethylene glycol (PEG) (81172, Sigma) and administered to mice by intraperitoneal (i.p.) injection. For treating bleomycin-injured young mice, SSK1 (0.5 mg/kg) or vehicle were given consecutive two days every week for five weeks. For old mice (20-month-old), SSK1 (0.5 mg/kg), gemcitabine (0.5 mg/kg) or vehicle were administrated for continued 3 days every two weeks. Gemcitabine was purchased from MCE.
# Cultured cells were washed once with PBS and fixed in β-galactosidase staining fix solution for 15 min at room temperature. Cells were then washed three times with PBS and incubated with β-galactosidase staining solution (Beyotime Biotechnology) for 16-20 hours at 37° C. For 12-well plates, 1 ml of β-galactosidase staining solution was added to each well. The plate was sealed with Parafilm to prevent evaporation of the staining medium. After the overnight incubation, cells were washed with PBS and observed under a bright field microscope. For β-galactosidase staining of frozen sections, the frozen sections were dried at 37° C. for 20-30 min and then fixed in β-galactosidase staining fix solution for 15 min at room temperature. The frozen sections were washed three times with PBS and incubated with β-galactosidase staining solution overnight at 37° C. After completion of β-galactosidase staining, the sections were stained with eosin for 1-2 min, rinsed under running water for 1 min, differentiated in 1% acid alcohol for 10-20 sec, and washed again under running water for 1 min. Sections were dehydrated in increasing concentrations of alcohols and cleared in xylene. Excess xylene was drained and a coverslip was placed over the section. After drying, the sample was observed under a microscope.
# Lung, liver, and kidney frozen sections stained with SA-β-Gal were quantified by ImageJ software (NIH) to measure the SA-β-Gal positive area. The total area was quantified by eosin positive area with ImageJ software (NIH). The relative positive SA-β-Gal positive cells were calculated with the SA-β-Gal positive area divided by the total area. Each mouse was measured with 3-5 regions.
# Mouse liver tissues were fixed in 4% paraformaldehyde (DingGuo, AR-0211) for 24 h at room temperature and dehydrated with graded sucrose solution (20% and 30% respectively 24 h) before embedded in OCT compound (Sakura) for cryosection. The embedded tissues were cut and affixed on slides. Before immunohistochemical staining, the sections were fixed in 4% paraformaldehyde (DingGuo, AR-0211) at room temperature for 15 min and blocked with PBS containing 0.25% Triton X-100 (Sigma-Aldrich, T8787) and 2% normal donkey serum (Jackson ImmunoResearch Laboratories, 017-000-121) at room temperature for 1 h. Samples for immunofluorescence staining were incubated with primary antibody: anti-F4/80 antibody (Abcam, ab6640) at 4° C. overnight, washed three times with PBS and then incubated with appropriate secondary antibodies: Alexa Fluor® 488 AffiniPure Donkey Anti-Rat IgG (H+L) (Jackson ImmunoResearch Laboratories, 712-545-150) for 1.5 h at 37° C. Nuclei were stained with Hoechst 33342 (Sigma-Aldrich, B2261).
# For quantification of F4/80 positive cells, images were randomly taken at 20× magnification at the same exposure using confocal laser endomicroscopy (LSM 710 NLO &DuoScan System) and then analyzed by ImageJ. Each mouse was measured with at least 6-10 regions.
# Total RNA was isolated using the Direct-zol RNA MiniPrep Kit (Zymo Research, R2072). RNA was treated with DNase and converted to cDNA using TransScript First-Strand cDNA Synthesis SuperMix (TransGen Biotech, AT311-03). qPCR was performed using Kapa SYBR® FAST qPCR Kit Master Mix (Kapa Biosystems, KM4101) on a CFX Connect™ Real-Time System or CFX96™ Real-Time System (Bio-Rad). Data were analyzed using the 2^(−ΔΔCt) method. Gapdh was used as a control to normalize the expression of target genes. […]
# [4] = test system: SARS-CoV-2-infected rhesus macaques; assay: SARS-CoV-2-infected rhesus macaques, early-stage SSK1 treatment (2.0 mg/kg once daily for 7 days from 0 dpi); format: in vivo; details: for Clinical observation: Body weight change (%) / Clinical observation: Increased temperature: 2.0 mg/kg
# [5] = 20-month-old mice, SSK1 0.5 mg/kg i.p. intermittently for 8 weeks
# [6] = aged mice, SSK1 0.5 mg/kg vs vehicle
# [7] = old female mice, 8 weeks, vs vehicle
smiles,measurement,setting,value
CC(=O)OCC1O[C@@H](Oc2ccc(COC(=O)Nc3ccn([C@@H]4O[C@H](CO)C(O)C4(F)F)c(=O)n3)cc2[N+](=O)[O-])C(OC(C)=O)C(OC(C)=O)[C@H]1OC(C)=O (some centres unmarked) [SSK1],Systemic toxicities (serum biochemical test and routine blood analysis),"[1]; aged mice, high concentration (100 mg/kg) and high frequency, 5 weeks, 3 injections a week",no obvious systemic toxicities
same,Apoptosis of β-gal positive epithelial tubular cells in the kidney,[1]; following SSK1 treatment,only a few cells of this tubular cell population was shown to be undergoing apoptosis
same,System toxicity (serum biochemical test and routine blood analysis),"[1]; old mice, 0.5 mg/kg for 8 weeks, FIGS. 7A and B",no obvious system toxicity
same,Selective killing of senescent cells (viable cells),[2],"selectively killed by SSK1, while non-senescent cells were largely unaffected"
same,"Elimination of β-gal-positive senescent cells vs vehicle, kidney",[3]; [5],3.5 fold
same,"Elimination of β-gal-positive senescent cells vs vehicle, liver",[3]; [5],5.9 fold
same,"Elimination of β-gal-positive senescent cells vs vehicle, lung",[3]; [5],2 fold
same,"GO pathways related to liver function (oxidation-reduction process, metabolic process, fatty acid beta-oxidation, mitochondrion)",[3]; aged livers vs vehicle,up-regulated
same,"Genes associated with inflammatory response, TNFα signaling via NF-κB, IL6 JAK Stat3 signaling and complement (GSEA)",[3]; aged mice livers and kidneys vs vehicle,down regulated
same,Age-associated signature (GSEA) in aged livers and kidneys,[3]; aged mice vs vehicle,decreased
same,"Expression of senescent markers p16 (in liver) and p21 (in liver and kidney), RT-qPCR",[3]; aged mice vs vehicle,decreased expression
same,"Inflammatory factors IL1α and IL1β in aged liver and IL6 in aged kidneys, RT-qPCR",[3]; aged mice vs vehicle,decreased
same,F4/80 positive macrophages infiltration in livers (immunofluorescence),"[3]; aged mice, SSK1 0.5 mg/kg",could delete macrophages infiltration
same,"Gene signature associated with senescence (GSEA), livers and kidneys",[3]; [6],downregulate
same,"Secretion of SASP factors IL1α, IL6, CXCL1 and TNFα in serum (ELISA)",[3]; [6],decreased secretion
same,"Rotarod, treadmill, and grip strength functions vs other senolytic drugs (fisetin, 17-DMAG, ABT263, dasatinib and quercetin)","[3]; aged mice, FIG. 4J","improved the rotarod, treadmill, and grip strength functions when compared to the other senolytic compounds"
same,Body weight,"[3]; old female mice, 8 weeks",without significant effect on body weight
same,Balance beam crossing time,[3]; [7],decreased
same,Grip strength,[3]; [7],significantly increased
same,Maximal rotarod time,[3]; [7],significantly increased
same,Rearing exploration times,[3]; [7],significantly increased
same,Treadmill distance,[3]; [7],significantly increased
same,"Rotarod, treadmill, and grip strength performance","[3]; old male mice, SSK1 0.5 mg/kg vs vehicle",same results were also observed
same,Liver fibrosis (Masson fibrosis staining),[3]; old mice vs vehicle,attenuate liver fibrosis
same,Rotarod and treadmill performance after vs before treatment,"[3]; old mice, SSK1 0.5 mg/kg",improved over the initial state before treatment
same,Progression of pulmonary infiltrates on chest X-ray,[4]; 6 dpi compared to 3 dpi,no progression
same,Clinical observation: Body weight change (%),[4]; M1 adult 5-year,+4.62%
same,Clinical observation: Increased temperature,[4]; M1 adult 5-year,light
same,Clinical observation: Body weight change (%),[4]; M2 adult 5-year,+1.64%
same,Clinical observation: Increased temperature,[4]; M2 adult 5-year,light
same,Large necrotic lesions in the livers at necropsy,[4]; SSK1-treated group,not in the SSK1-treated group
same,Lung histopathology (H&E),[4]; SSK1-treated group,minimally thickened alveolar septum and focal edema
same,Serum level of IL-18,[4]; SSK1-treated group,increased significantly
same,"Virus shedding (virus load in nose, throat, anal swabs and blood, RT-qPCR)",[4]; SSK1-treated group,no delay but even faster reduction in virus shedding
same,Body temperature,"[4]; SSK1-treated group, 2 mg/kg",relatively stable
same,Body weight,"[4]; SSK1-treated group, 2 mg/kg, 0 to 7 dpi",remained constant
same,Airway narrowing and mucinous secretions (AB-PAS staining),[4]; SSK1 treatment,recovered the airway narrowing and extensive mucinous secretions
same,Gross lung lesions at necropsy,[4]; animal M1,Some brown punctate lesions
same,Pulmonary hemorrhages (H&E),[4]; animal M1,local pulmonary hemorrhages
same,Ground-glass opacification in the lungs on X-ray,"[4]; animal M1, 2 mg/kg, 3 dpi",Ground-glass opacification appeared
same,Gross lung lesions at necropsy,[4]; animal M2,No obvious lung lesions
same,Signs of pneumonia on X-ray,"[4]; animal M2, 2 mg/kg",no signs of pneumonia on X-ray throughout the experiment
same,"Concentrations of inflammatory cytokines GM-CSF, IL-1β, IL-12, MIP-1A and TNF-α in lung tissues",[4]; vs vehicle,lower
same,Viral load in the respiratory tract tissues and multiple organs,[4]; vs vehicle-treated group,grossly lower
